From patent EP1285920A1, “C10 Ester sustituted taxanes as antitumor agents” (Florida State University Research Foundation, Inc., priority 2001, dated 2003) come the findings set out here.

A value given as a limit tells only on which side of the number the result lay.

In one assay the test system is HCT116. As to the kind of experiment: In Vitro cytotoxicity measured by the cell colony formation assay. The format is cell-based, human. As to conditions: HCT116 colony formation; 72 h with drug, colonies counted after 7 days; ID50 = concentration producing 50% inhibition of colony formation; read-out: IN VITRO ID 50 HCT116. The protocol: Four hundred cells (HCT116) were plated in 60 mm Petri dishes containing 2.7 mL of medium (modified McCoy's 5a medium containing 10% fetal bovine serum and 100 units/mL penicillin and […] streptomycin). The cells were incubated in a CO2 incubator at 37 °C for 5 h for attachment to the bottom of Petri dishes. The compounds identified in Example 2 were made up fresh in medium at ten times the final concentration, and then 0.3 mL of this stock solution was added to the 2.7 mL of medium in the dish. The cells were then incubated with drugs for 72 h at 37 °C. At the end of incubation the drug-containing media were decanted, the dishes were rinsed with 4 mL of Hank's Balance Salt Solution (HBSS), 5 mL of fresh medium was added, and the dishes were returned to the incubator for colony formation. The cell colonies were counted using a colony counter after incubation for 7 days.
Take `CC=CC(=O)OC1C(=O)C2(C)C(O)CC3OCC3(OC(C)=O)C2C(OC(=O)c2ccccc2)C2(O)CC(OC(=O)C(O)C(NC(=O)OC(C)(C)C)c3ccncc3)C(C)=C1C2(C)C` (stereo not shown) [Compound 2366]: the IC50 is less than 1 nM.
Same read-out and setting: as for `CC=CC(=O)OC1C(=O)C2(C)C(O)CC3OCC3(OC(C)=O)C2C(OC(=O)c2ccccc2)C2(O)CC(OC(=O)C(O)C(NC(=O)OC(C)(C)C)C3CCC3)C(C)=C1C2(C)C` (stereo not shown) [Compound 2424], the figure is less than 10 nM; as for `CC=CC(=O)OC1C(=O)C2(C)C(O)CC3OCC3(OC(C)=O)C2C(OC(=O)c2ccccc2)C2(O)CC(OC(=O)C(O)C(NC(=O)OC(C)(C)C)c3ccco3)C(C)=C1C2(C)C` (stereo not shown) [Compound 2379], less than 1 nM.

Still in this assay, the particulars now being: Homo sapiens, HCT-116; read-out: IN VITRO ID 50 HCT116.
With `CC(=O)O[C@@]12CO[C@@H]1C[C@H](O)[C@@]1(C)C(=O)[C@H](OC(=O)c3cccs3)C3=C(C)[C@@H](OC(=O)[C@H](O)[C@@H](NC(=O)OC(C)(C)C)c4ccccc4)C[C@@](O)([C@@H](OC(=O)c4ccccc4)[C@H]21)C3(C)C` [Compound 1988], the IC50 was less than 10 nM.
With `CC(=O)O[C@@]12CO[C@@H]1C[C@H](O)[C@@]1(C)C(=O)[C@H](OC(=O)C3CC3)C3=C(C)[C@@H](OC(=O)[C@H](O)[C@@H](NC(=O)OC(C)(C)C)C4CC4)C[C@@](O)([C@@H](OC(=O)c4ccccc4)[C@H]21)C3(C)C` [Compound 0860], the IC50 is less than 1 nM.
Still for that read-out and setting: as for `CC(=O)O[C@@]12CO[C@@H]1C[C@H](O)[C@@]1(C)C(=O)[C@H](OC(=O)C3CC3)C3=C(C)[C@@H](OC(=O)[C@H](O)[C@@H](NC(=O)c4ccccc4)C4CC4)C[C@@](O)([C@@H](OC(=O)c4ccccc4)[C@H]21)C3(C)C` [Compound 0923], the figure is less than 1 nM; as for `CCCC(=O)O[C@H]1C(=O)[C@@]2(C)[C@H]([C@H](OC(=O)c3ccccc3)[C@]3(O)C[C@H](OC(=O)[C@H](O)[C@@H](NC(=O)c4ccco4)c4ccco4)C(C)=C1C3(C)C)[C@]1(OC(C)=O)CO[C@@H]1C[C@@H]2O` [Compound 3686], less than 1 nM.
For `CC(=O)OC12COC1CC(O)C1(C)C(=O)C(OC(=O)C(C)C)C3=C(C)C(OC(=O)C(O)C(NC(=O)OC(C)(C)C)c4cccnc4)CC(O)(C(OC(=O)c4ccccc4)C21)C3(C)C` (stereo not shown) [Compound 2242], the IC50 is less than 10 nM.
Consider `CC(=O)OC12COC1CC(O)C1(C)C(=O)C(OC(=O)C(C)C)C3=C(C)C(OC(=O)C(O)C(NC(=O)OC(C)(C)C)c4ccncc4)CC(O)(C(OC(=O)c4ccccc4)C21)C3(C)C` (stereo not shown) [Compound 2255], for which the IC50 is less than 1 nM.
For the molecule `CC(=O)OC12COC1CC(O)C1(C)C(=O)C(OC(=O)C(C)C)C3=C(C)C(OC(=O)C(O)C(NC(=O)OC(C)(C)C)c4ccc([N+](=O)[O-])cc4)CC(O)(C(OC(=O)c4ccccc4)C21)C3(C)C` (stereo not shown) [Compound 2320], the IC50 was less than 1 nM.
On the same count and under the same terms, as for `CCCC(=O)N[C@@H](c1cccs1)[C@@H](O)C(=O)O[C@H]1C[C@@]2(O)[C@@H](OC(=O)c3ccccc3)[C@@H]3[C@]4(OC(C)=O)CO[C@@H]4C[C@H](O)[C@@]3(C)C(=O)[C@H](OC(=O)C3CC3)C(=C1C)C2(C)C` [Compound 3132], the figure is less than 1 nM.
Still for that read-out and setting: as for `CC(=O)O[C@@]12CO[C@@H]1C[C@H](O)[C@@]1(C)C(=O)[C@H](OC(=O)C3CC3)C3=C(C)[C@@H](OC(=O)[C@H](O)[C@@H](NC(=O)OC(C)(C)C)c4ccc([N+](=O)[O-])cc4)C[C@@](O)([C@@H](OC(=O)c4ccccc4)[C@H]21)C3(C)C` [Compound 0879], the figure is less than 1 nM; as for `CCC(=O)O[C@H]1C(=O)[C@@]2(C)[C@H]([C@H](OC(=O)c3ccccc3)[C@]3(O)C[C@H](OC(=O)[C@H](O)[C@@H](NC(=O)c4cccnc4)c4cccs4)C(C)=C1C3(C)C)[C@]1(OC(C)=O)CO[C@@H]1C[C@@H]2O` [Compound 4121], less than 10 nM; as for `CCC(=O)O[C@H]1C(=O)[C@@]2(C)[C@H]([C@H](OC(=O)c3ccccc3)[C@]3(O)C[C@H](OC(=O)[C@H](O)[C@@H](NC(=O)OC(C)(C)C)c4ccc([N+](=O)[O-])cc4)C(C)=C1C3(C)C)[C@]1(OC(C)=O)CO[C@@H]1C[C@@H]2O` [Compound 0602], less than 1 nM.
On the same count and under the same terms, as for `CC(=O)O[C@@]12CO[C@@H]1C[C@H](O)[C@@]1(C)C(=O)[C@H](OC(=O)c3ccco3)C3=C(C)[C@@H](OC(=O)[C@H](O)[C@@H](NC(=O)OC(C)(C)C)c4ccco4)C[C@@](O)([C@@H](OC(=O)c4ccccc4)[C@H]21)C3(C)C` [Compound 2142], the figure is less than 1 nM.
Take `CC(=O)O[C@@]12CO[C@@H]1C[C@H](O)[C@@]1(C)C(=O)[C@H](OC(=O)C3CC3)C3=C(C)[C@@H](OC(=O)[C@H](O)[C@@H](NC(=O)C=C(C)C)c4cccs4)C[C@@](O)([C@@H](OC(=O)c4ccccc4)[C@H]21)C3(C)C` [Compound 4329]: the IC50 was less than 1 nM.
Same read-out and setting: the figure for `CCC(=O)O[C@H]1C(=O)[C@@]2(C)[C@H]([C@H](OC(=O)c3ccccc3)[C@]3(O)C[C@H](OC(=O)[C@H](O)[C@H](C=C(C)C)NC(=O)c4ccccc4)C(C)=C1C3(C)C)[C@]1(OC(C)=O)CO[C@@H]1C[C@@H]2O` [Compound 0625] is less than 1 nM; for `CCCC(=O)O[C@H]1C(=O)[C@@]2(C)[C@H]([C@H](OC(=O)c3ccccc3)[C@]3(O)C[C@H](OC(=O)[C@H](O)[C@@H](NC(=O)c4ccccc4)c4ccco4)C(C)=C1C3(C)C)[C@]1(OC(C)=O)CO[C@@H]1C[C@@H]2O` [Compound 3204] it is less than 1 nM; for `CC(=O)O[C@@]12CO[C@@H]1C[C@H](O)[C@@]1(C)C(=O)[C@H](OC(=O)c3cccs3)C3=C(C)[C@@H](OC(=O)[C@H](O)[C@@H](NC(=O)OC(C)(C)C)c4ccoc4)C[C@@](O)([C@@H](OC(=O)c4ccccc4)[C@H]21)C3(C)C` [Compound 1923] it is less than 1 nM.
Regarding `CCCC(=O)O[C@H]1C(=O)[C@@]2(C)[C@H]([C@H](OC(=O)c3ccccc3)[C@]3(O)C[C@H](OC(=O)[C@H](O)[C@@H](NC(=O)c4ccccc4)C4CC4)C(C)=C1C3(C)C)[C@]1(OC(C)=O)CO[C@@H]1C[C@@H]2O` [Compound 3482], the IC50 was less than 1 nM.
As for `CCC(=O)O[C@H]1C(=O)[C@@]2(C)[C@H]([C@H](OC(=O)c3ccccc3)[C@]3(O)C[C@H](OC(=O)[C@H](O)[C@@H](NC(=O)OCC(C)C)c4cccs4)C(C)=C1C3(C)C)[C@]1(OC(C)=O)CO[C@@H]1C[C@@H]2O` [Compound 3163], the IC50 was less than 1 nM.
Same read-out and setting: as for `CC(=O)O[C@@]12CO[C@@H]1C[C@H](O)[C@@]1(C)C(=O)[C@H](OC(=O)C3CC3)C3=C(C)[C@@H](OC(=O)[C@H](O)[C@@H](NC(=O)c4ccco4)c4ccco4)C[C@@](O)([C@@H](OC(=O)c4ccccc4)[C@H]21)C3(C)C` [Compound 3866], the figure is less than 1 nM; as for `CCCC(=O)O[C@H]1C(=O)[C@@]2(C)[C@H]([C@H](OC(=O)c3ccccc3)[C@]3(O)C[C@H](OC(=O)[C@H](O)[C@@H](NC(=O)OCC)c4cccs4)C(C)=C1C3(C)C)[C@]1(OC(C)=O)CO[C@@H]1C[C@@H]2O` [Compound 3096], less than 1 nM; as for `CCC(=O)O[C@H]1C(=O)[C@@]2(C)[C@H]([C@H](OC(=O)c3ccccc3)[C@]3(O)C[C@H](OC(=O)[C@H](O)[C@@H](NC(=O)c4ccccc4)c4ccc([N+](=O)[O-])cc4)C(C)=C1C3(C)C)[C@]1(OC(C)=O)CO[C@@H]1C[C@@H]2O` [Compound 0732], less than 10 nM.
The same measure, in the same setting: the figure for `CC(=O)OC12COC1CC(O)C1(C)C(=O)C(OC(=O)C(C)C)C3=C(C)C(OC(=O)C(O)C(NC(=O)OC(C)(C)C)c4ccco4)CC(O)(C(OC(=O)c4ccccc4)C21)C3(C)C` (stereo not shown) [Compound 2269] is less than 1 nM.
